Activity calls are given as the source filed them. No cut-off for these calls is given here.
Key:
[1] = target: Transient receptor potential cation channel subfamily M member 8 (Homo sapiens, UniProt Q7Z2W7); test: Transients WS-12 activation
[2] = target: Activin receptor type-1-like (Homo sapiens) (UniProt P37023); details: Compound concentration 1000.0 nM
[3] = target: Bone morphogenetic protein receptor type-1A (Homo sapiens) (UniProt P36894); details: Compound concentration 1000.0 nM
[4] = target: Calcium/calmodulin-dependent protein kinase type 1 (Homo sapiens) (UniProt Q14012); details: Compound concentration 1000.0 nM
Calcium/calmodulin-dependent protein kinase type 1 (Homo sapiens), sequence (Q14012 whole entry, looked up): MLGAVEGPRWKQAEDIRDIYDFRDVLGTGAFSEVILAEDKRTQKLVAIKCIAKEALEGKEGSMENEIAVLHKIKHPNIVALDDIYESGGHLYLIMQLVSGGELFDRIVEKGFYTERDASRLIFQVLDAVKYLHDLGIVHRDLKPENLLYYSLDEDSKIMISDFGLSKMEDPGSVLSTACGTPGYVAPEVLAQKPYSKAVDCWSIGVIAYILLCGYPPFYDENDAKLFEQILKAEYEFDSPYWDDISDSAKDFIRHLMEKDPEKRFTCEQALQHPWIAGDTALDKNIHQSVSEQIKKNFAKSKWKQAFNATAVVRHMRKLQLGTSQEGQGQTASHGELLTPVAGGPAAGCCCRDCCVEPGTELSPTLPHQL

[5] = target: Calcium/calmodulin-dependent protein kinase kinase 2 (Homo sapiens) (UniProt Q96RR4); details: Compound concentration 1000.0 nM
Calcium/calmodulin-dependent protein kinase kinase 2 (Homo sapiens), sequence (Q96RR4 2-588 limits assumed): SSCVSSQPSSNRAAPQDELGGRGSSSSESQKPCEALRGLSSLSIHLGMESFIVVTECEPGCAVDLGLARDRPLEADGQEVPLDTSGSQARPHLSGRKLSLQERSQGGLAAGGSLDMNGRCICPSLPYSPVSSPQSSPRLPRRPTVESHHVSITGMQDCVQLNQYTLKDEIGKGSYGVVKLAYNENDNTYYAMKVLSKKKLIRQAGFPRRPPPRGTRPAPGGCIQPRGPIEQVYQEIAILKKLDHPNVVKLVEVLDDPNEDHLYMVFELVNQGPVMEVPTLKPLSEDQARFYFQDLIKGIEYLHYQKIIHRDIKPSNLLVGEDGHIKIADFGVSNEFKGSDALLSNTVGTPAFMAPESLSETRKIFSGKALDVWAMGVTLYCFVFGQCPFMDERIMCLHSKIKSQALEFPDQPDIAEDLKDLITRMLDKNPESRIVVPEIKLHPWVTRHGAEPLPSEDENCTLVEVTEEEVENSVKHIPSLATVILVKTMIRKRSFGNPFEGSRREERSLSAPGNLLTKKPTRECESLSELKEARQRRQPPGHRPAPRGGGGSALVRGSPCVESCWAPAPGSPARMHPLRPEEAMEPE

[6] = target: Serine/threonine-protein kinase Chk1 (Homo sapiens) (UniProt O14757); details: Compound concentration 1000.0 nM
[7] = target: Casein kinase II subunit alpha' (Homo sapiens) (UniProt P19784); details: Compound concentration 1000.0 nM
[8] = target: Dual specificity tyrosine-phosphorylation-regulated kinase 1A (Homo sapiens) (UniProt Q13627); details: Compound concentration 1000.0 nM
[9] = target: Dual specificity tyrosine-phosphorylation-regulated kinase 1B (Homo sapiens) (UniProt Q9Y463); details: Compound concentration 1000.0 nM
[10] = system: Epidermal growth factor receptor (Homo sapiens), P00533 [UNDEFINED MUTATION]; details: Compound concentration 1000.0 nM
[11] = system: Epidermal growth factor receptor (Homo sapiens), P00533 [L858R,T790M]; details: Compound concentration 1000.0 nM
[12] = target: Ephrin type-A receptor 4 (Homo sapiens) (UniProt P54764); details: Compound concentration 1000.0 nM
[13] = target: Ephrin type-B receptor 4 (Homo sapiens) (UniProt P54760); details: Compound concentration 1000.0 nM
[14] = target: Receptor tyrosine-protein kinase erbB-3 (Homo sapiens) (UniProt P21860); details: Compound concentration 1000.0 nM
[15] = target: Mitogen-activated protein kinase 1 (Homo sapiens) (UniProt P28482); details: Compound concentration 1000.0 nM
[16] = target: Fibroblast growth factor receptor 2 (Homo sapiens) (UniProt P21802); details: Compound concentration 1000.0 nM
[17] = system: Fibroblast growth factor receptor 3 (Homo sapiens), P22607 [G697C]; details: Compound concentration 1000.0 nM
[18] = target: Serine/threonine-protein kinase haspin (Homo sapiens) (UniProt Q8TF76); details: Compound concentration 1000.0 nM
[19] = target: Insulin receptor (Homo sapiens) (UniProt P06213); details: Compound concentration 1000.0 nM
[20] = target: Interleukin-1 receptor-associated kinase 4 (Homo sapiens) (UniProt Q9NWZ3); details: Compound concentration 1000.0 nM
Interleukin-1 receptor-associated kinase 4 (Homo sapiens), sequence (Q9NWZ3 whole entry): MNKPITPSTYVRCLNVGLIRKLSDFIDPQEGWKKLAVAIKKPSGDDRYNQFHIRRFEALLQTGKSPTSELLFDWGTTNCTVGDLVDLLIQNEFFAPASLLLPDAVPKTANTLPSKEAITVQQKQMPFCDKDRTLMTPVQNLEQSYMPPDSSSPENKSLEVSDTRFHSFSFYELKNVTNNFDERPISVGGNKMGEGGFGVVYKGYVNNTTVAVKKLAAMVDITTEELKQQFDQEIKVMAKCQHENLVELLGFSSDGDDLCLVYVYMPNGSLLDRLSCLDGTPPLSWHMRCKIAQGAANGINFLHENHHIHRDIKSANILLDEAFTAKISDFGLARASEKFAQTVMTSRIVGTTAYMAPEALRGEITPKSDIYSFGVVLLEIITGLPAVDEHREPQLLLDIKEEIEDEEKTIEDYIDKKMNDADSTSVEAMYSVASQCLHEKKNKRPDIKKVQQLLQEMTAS

[21] = target: Mitogen-activated protein kinase 10 (Homo sapiens) (UniProt P53779); details: Compound concentration 1000.0 nM
[22] = target: Serine/threonine-protein kinase LATS1 (Homo sapiens) (UniProt O95835); details: Compound concentration 1000.0 nM
[23] = target: Leukocyte tyrosine kinase receptor (Homo sapiens) (UniProt P29376); details: Compound concentration 1000.0 nM
[24] = target: Serine/threonine-protein kinase 4 (Homo sapiens) (UniProt Q13043); details: Compound concentration 1000.0 nM
[25] = target: Myosin light chain kinase, smooth muscle (Homo sapiens) (UniProt Q15746); details: Compound concentration 1000.0 nM
[26] = target: Myosin-IIIb (Homo sapiens) (UniProt Q8WXR4); details: Compound concentration 1000.0 nM
[27] = target: Serine/threonine-protein kinase PAK 4 (Homo sapiens) (UniProt O96013); details: Compound concentration 1000.0 nM
[28] = target: Platelet-derived growth factor receptor beta (Homo sapiens) (UniProt P09619); details: Compound concentration 1000.0 nM
[29] = target: Cyclin-dependent kinase 14 (Homo sapiens) (UniProt O94921); details: Compound concentration 1000.0 nM
[30] = system: Phosphatidylinositol 4,5-bisphosphate 3-kinase catalytic subunit alpha isoform (Homo sapiens), P42336 [E545K]; details: Compound concentration 1000.0 nM
Phosphatidylinositol 4,5-bisphosphate 3-kinase catalytic subunit alpha isoform (Homo sapiens), P42336 [E545K], sequence (P42336 whole entry E545K, canonical isoform): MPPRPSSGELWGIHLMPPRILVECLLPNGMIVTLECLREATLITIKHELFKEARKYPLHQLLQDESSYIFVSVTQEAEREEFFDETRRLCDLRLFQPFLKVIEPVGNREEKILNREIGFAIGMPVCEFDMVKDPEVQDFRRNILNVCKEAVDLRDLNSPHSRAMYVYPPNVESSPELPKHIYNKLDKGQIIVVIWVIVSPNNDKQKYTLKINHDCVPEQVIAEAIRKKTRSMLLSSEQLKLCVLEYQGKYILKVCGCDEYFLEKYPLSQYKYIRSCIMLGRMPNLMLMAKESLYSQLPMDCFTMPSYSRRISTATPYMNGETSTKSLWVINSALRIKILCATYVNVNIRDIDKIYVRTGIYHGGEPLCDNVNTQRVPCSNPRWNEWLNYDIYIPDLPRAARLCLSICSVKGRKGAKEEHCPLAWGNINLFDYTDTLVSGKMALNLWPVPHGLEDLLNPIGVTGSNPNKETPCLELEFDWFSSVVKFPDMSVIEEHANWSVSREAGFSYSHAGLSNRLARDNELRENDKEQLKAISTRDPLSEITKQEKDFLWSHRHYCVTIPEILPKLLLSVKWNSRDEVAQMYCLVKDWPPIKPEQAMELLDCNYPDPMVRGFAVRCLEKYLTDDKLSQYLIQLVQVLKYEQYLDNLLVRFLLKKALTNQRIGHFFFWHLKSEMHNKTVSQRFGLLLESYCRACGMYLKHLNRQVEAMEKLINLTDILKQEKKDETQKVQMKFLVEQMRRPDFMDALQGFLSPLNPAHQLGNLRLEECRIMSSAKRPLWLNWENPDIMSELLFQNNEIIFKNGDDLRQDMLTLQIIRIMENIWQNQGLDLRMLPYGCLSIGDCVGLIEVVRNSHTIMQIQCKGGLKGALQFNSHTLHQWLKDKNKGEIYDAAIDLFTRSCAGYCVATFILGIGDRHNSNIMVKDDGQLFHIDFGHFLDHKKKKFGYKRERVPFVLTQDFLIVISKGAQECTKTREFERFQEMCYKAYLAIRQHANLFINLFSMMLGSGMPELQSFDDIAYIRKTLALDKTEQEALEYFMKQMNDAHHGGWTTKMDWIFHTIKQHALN

[31] = system: Phosphatidylinositol 4,5-bisphosphate 3-kinase catalytic subunit alpha isoform (Homo sapiens), P42336 [H1047Y]; details: Compound concentration 1000.0 nM
Phosphatidylinositol 4,5-bisphosphate 3-kinase catalytic subunit alpha isoform (Homo sapiens), P42336 [H1047Y], sequence (P42336 whole entry H1047Y, canonical isoform): as the sequence (P42336 whole entry E545K, canonical isoform) above, with K545E, H1047Y counted along it

[32] = system: Phosphatidylinositol 4,5-bisphosphate 3-kinase catalytic subunit alpha isoform (Homo sapiens), P42336 [M1043I]; details: Compound concentration 1000.0 nM
[33] = target: Phosphatidylinositol 4-kinase beta (Homo sapiens) (UniProt Q9UBF8); details: Compound concentration 1000.0 nM
[34] = target: Phosphatidylinositol 5-phosphate 4-kinase type-2 beta (Homo sapiens) (UniProt P78356); details: Compound concentration 1000.0 nM
[35] = target: Serine/threonine-protein kinase PLK2 (Homo sapiens) (UniProt Q9NYY3); details: Compound concentration 1000.0 nM
[36] = target: Serine/threonine-protein kinase D3 (Homo sapiens) (UniProt O94806); details: Compound concentration 1000.0 nM
[37] = target: cGMP-dependent protein kinase 2 (Homo sapiens) (UniProt Q13237); details: Compound concentration 1000.0 nM
[38] = target: Serine/threonine-protein kinase 35 (Homo sapiens) (UniProt Q8TDR2); details: Compound concentration 1000.0 nM
[39] = target: STE20/SPS1-related proline-alanine-rich protein kinase (Homo sapiens) (UniProt Q9UEW8); details: Compound concentration 1000.0 nM
[40] = target: Non-receptor tyrosine-protein kinase TNK1 (Homo sapiens) (UniProt Q13470); details: Compound concentration 1000.0 nM
[41] = target: High affinity nerve growth factor receptor (Homo sapiens) (UniProt P04629); details: Compound concentration 1000.0 nM
High affinity nerve growth factor receptor (Homo sapiens), sequence (P04629 33-796 limits assumed): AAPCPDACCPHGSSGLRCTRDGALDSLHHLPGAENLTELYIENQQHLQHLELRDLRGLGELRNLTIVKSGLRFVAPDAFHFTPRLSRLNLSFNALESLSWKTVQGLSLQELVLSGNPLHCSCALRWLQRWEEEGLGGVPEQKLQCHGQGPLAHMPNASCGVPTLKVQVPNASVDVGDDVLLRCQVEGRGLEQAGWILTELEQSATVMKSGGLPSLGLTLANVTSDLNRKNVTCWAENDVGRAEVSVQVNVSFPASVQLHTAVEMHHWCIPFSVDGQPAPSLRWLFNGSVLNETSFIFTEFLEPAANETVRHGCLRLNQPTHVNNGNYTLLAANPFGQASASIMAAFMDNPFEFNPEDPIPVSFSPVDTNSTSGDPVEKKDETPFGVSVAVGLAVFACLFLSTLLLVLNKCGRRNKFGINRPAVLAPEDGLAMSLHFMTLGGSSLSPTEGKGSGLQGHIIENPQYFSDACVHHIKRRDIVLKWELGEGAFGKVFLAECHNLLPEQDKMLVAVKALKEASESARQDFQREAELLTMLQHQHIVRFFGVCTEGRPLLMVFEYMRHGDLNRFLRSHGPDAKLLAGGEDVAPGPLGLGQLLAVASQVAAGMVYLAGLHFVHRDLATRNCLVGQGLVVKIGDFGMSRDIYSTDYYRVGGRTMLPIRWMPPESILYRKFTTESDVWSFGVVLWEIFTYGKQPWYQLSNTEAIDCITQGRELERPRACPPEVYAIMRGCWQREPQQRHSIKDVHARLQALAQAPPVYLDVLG

[42] = target: Serine/threonine-protein kinase ULK1 (Homo sapiens) (UniProt O75385); details: Compound concentration 1000.0 nM
[43] = target: Serine/threonine-protein kinase WNK1 (Homo sapiens) (UniProt Q9H4A3); details: Compound concentration 1000.0 nM
[44] = target: 5-hydroxytryptamine receptor 1B (Homo sapiens) (UniProt P28222); details: Compound concentration 10.0 uM
[45] = target: Histamine H2 receptor (Homo sapiens) (UniProt P25021); details: Compound concentration 10.0 uM

Bone morphogenetic protein receptor type-1A (Homo sapiens), sequence (P36894 whole entry): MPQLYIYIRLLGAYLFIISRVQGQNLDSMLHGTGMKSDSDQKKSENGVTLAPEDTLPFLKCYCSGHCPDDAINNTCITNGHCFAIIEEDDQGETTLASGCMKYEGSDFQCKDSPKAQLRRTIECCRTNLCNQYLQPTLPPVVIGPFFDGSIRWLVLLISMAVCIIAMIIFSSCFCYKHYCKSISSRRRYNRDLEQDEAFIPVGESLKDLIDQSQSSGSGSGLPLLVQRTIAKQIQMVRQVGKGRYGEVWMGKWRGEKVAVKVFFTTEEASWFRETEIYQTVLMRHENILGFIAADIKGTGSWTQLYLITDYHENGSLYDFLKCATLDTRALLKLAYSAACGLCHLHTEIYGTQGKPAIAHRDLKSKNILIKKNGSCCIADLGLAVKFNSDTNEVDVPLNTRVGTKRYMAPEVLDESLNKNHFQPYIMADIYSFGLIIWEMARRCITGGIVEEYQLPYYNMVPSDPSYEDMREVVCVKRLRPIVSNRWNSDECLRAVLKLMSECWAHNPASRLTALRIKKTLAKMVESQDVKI

Compound: C[C@H](c1ccc(F)cc1)N(Cc1cccc(C(=O)O)c1)C(=O)c1cnc2ccccc2c1 [PF-05105679]
- IC50 [1]: 29.6 nM (active)
- residual activity [2]: 100%
- residual activity [3]: 100%
- residual activity [4]: 100%
- residual activity [5]: 95%
- residual activity [6]: 100%
- residual activity [7]: 86%
- residual activity [8]: 100%
- residual activity [9]: 100%
- residual activity [10]: 100%
- residual activity [11]: 96%
- residual activity [12]: 92%
- residual activity [13]: 100%
- residual activity [14]: 68%
- residual activity [15]: 99%
- residual activity [16]: 74%
- residual activity [17]: 100%
- residual activity [18]: 100%
- residual activity [19]: 100%
- residual activity [20]: 95%
- residual activity [21]: 82%
- residual activity [22]: 100%
- residual activity [23]: 90%
- residual activity [24]: 92%
- residual activity [25]: 76%
- residual activity [26]: 100%
- residual activity [27]: 100%
- residual activity [28]: 100%
- residual activity [29]: 100%
- residual activity [30]: 100%
- residual activity [31]: 100%
- residual activity [32]: 100%
- residual activity [33]: 98%
- residual activity [34]: 96%
- residual activity [35]: 100%
- residual activity [36]: 100%
- residual activity [37]: 100%
- residual activity [38]: 93%
- residual activity [39]: 82%
- residual activity [40]: 100%
- residual activity [41]: 100%
- residual activity [42]: 86%
- residual activity [43]: 100%
- inhibition [44]: 4.38%
- inhibition [45]: -1.14%

Reference: ChEMBL document CHEMBL4507296 (2021)
